{
  "source": "patent US5919770A",
  "about": "“Metabolites of ginseng saponins by human intestinal bacteria and its preparation for an anticancer” (Il Hwa Co., Ltd., priority 1996, dated 1999)",
  "key": {"[1]": {"tested_on": "bovine artery endotheliocyte (BAE)", "assay": "Inhibition on the migration of bovine artery endotheliocyte (vascularization of tumor)", "assay_type": "cell-based", "settings": "24 hours", "protocol": "Inhibition on the vascularization of tumor (Test for the inhibition on the migration)\nBovine artery endotheliocyte (BAE) was used for this experiment. BAE (5×10^3 cells) was cultured in 6-well plate for 24 hours and cells attached to the plate were detached by a razor. Said medium was replaced by a new one and after one hour, a solution of intestinal flora metabolite of ginseng saponin was added to the desired inhibitory concentration of 10% and 50%, respectively for 24-hour cultivation. After completing the cultivation, cells were fixed with methanol, stained with Giemsa method and counted the cells migrated from the detached line under microscope."}, "cancer cells": {"tested_on": "cancer cells", "settings": "Japanese Patent No. 93-9123, Sato et al. 1994; cited from earlier work"}, "liver cancer cells": {"tested_on": "liver cancer cells", "settings": "Japanese Patent No. 89-28759; cited from earlier work"}},
  "data": [
    {"smiles": "Cc1ccc(C(=O)Nc2ccc(S(=O)(=O)O)c3cc(S(=O)(=O)O)cc(S(=O)(=O)O)c23)cc1NC(=O)c1cccc(NC(=O)Nc2cccc(C(=O)Nc3cc(C(=O)Nc4ccc(S(=O)(=O)O)c5cc(S(=O)(=O)O)cc(S(=O)(=O)O)c45)ccc3C)c2)c1", "note": "[Suramin, reference compound]", "values": [
      {"measurement": "Migration-inhibition (% control), IC10", "setting": "[1]; at the 10% inhibitory concentration (IC10)", "result": -3.8, "unit": "% control"},
      {"measurement": "Migration-inhibition (% control), IC50", "setting": "[1]; at the 50% inhibitory concentration (IC50)", "result": 37.1, "unit": "% control"}
    ]},
    {"smiles": "CC(C)=CCC[C@](C)(O[C@@H]1O[C@H](CO[C@@H]2OC[C@H](O)[C@H](O)[C@H]2O)[C@@H](O)[C@H](O)[C@H]1O)[C@H]1CC[C@]2(C)[C@@H]1[C@H](O)C[C@@H]1[C@@]3(C)CC[C@H](O[C@@H]4O[C@H](CO)[C@@H](O)[C@H](O)[C@H]4O[C@@H]4O[C@H](CO)[C@@H](O)[C@H](O)[C@H]4O)C(C)(C)[C@@H]3CC[C@]12C", "note": "[ginsenoside Rb2]", "values": [
      {"measurement": "inhibition of vascularization of tumors, extravasation and metastasis of cancer cells", "setting": "cancer cells", "result": "inhibit the vascularization of tumors and extravasation of cancer cells including inhibitory actions on the metastatis of cancer cells"}
    ]},
    {"smiles": "CC(C)=CCC[C@@](C)(O)[C@H]1CC[C@]2(C)[C@@H]1[C@H](O)C[C@@H]1[C@@]3(C)CC[C@H](O[C@@H]4O[C@H](CO)[C@@H](O)[C@H](O)[C@H]4O[C@@H]4O[C@H](CO)[C@@H](O)[C@H](O)[C@H]4O)C(C)(C)[C@@H]3CC[C@]12C", "note": "[ginsenoside Rg3, 3-0-[β-D-glucopyranosyl(1→2)-β-D-glucopyranosyl]-20(R)-protopanaxadiol]", "values": [
      {"measurement": "inhibition of vascularization of tumors, extravasation and metastasis of cancer cells", "setting": "cancer cells", "result": "inhibit the vascularization of tumors and extravasation of cancer cells including inhibitory actions on the metastatis of cancer cells"}
    ]},
    {"smiles": "CC(C)=CCC[C@](C)(O)[C@H]1CC[C@]2(C)[C@@H]1[C@H](O)C[C@@H]1[C@@]3(C)CC[C@H](O[C@@H]4O[C@H](CO)[C@@H](O)[C@H](O)[C@H]4O)C(C)(C)[C@@H]3CC[C@]12C", "note": "[ginsenoside Rh2, 3-0-β-D-glucopyranosyl-20(s)-protopanaxadiol]", "values": [
      {"measurement": "inhibition of the proliferation of liver cancer cells", "setting": "liver cancer cells", "result": "inhibit the proliferation of liver cancer cells"}
    ]}
  ]
}
